Structures can show the parent of a compound that is named as a salt. Where two headings read alike, the source gives them in different places.
Experiments:
[1] = biological target: human 5-HT7 receptor (Homo sapiens, UniProt P34969); test: Cross-reactivity binding, human 5-HT7 receptor
[2] = biological target: human α1a adrenergic receptor (Homo sapiens, UniProt P35348); test: Cross-reactivity binding, cloned human α1a receptor
[3] = biological target: human α1d adrenergic receptor (Homo sapiens, UniProt P25100); test: Cross-reactivity binding, cloned human α1d receptor
Chain of human α1d adrenergic receptor (P25100 whole entry): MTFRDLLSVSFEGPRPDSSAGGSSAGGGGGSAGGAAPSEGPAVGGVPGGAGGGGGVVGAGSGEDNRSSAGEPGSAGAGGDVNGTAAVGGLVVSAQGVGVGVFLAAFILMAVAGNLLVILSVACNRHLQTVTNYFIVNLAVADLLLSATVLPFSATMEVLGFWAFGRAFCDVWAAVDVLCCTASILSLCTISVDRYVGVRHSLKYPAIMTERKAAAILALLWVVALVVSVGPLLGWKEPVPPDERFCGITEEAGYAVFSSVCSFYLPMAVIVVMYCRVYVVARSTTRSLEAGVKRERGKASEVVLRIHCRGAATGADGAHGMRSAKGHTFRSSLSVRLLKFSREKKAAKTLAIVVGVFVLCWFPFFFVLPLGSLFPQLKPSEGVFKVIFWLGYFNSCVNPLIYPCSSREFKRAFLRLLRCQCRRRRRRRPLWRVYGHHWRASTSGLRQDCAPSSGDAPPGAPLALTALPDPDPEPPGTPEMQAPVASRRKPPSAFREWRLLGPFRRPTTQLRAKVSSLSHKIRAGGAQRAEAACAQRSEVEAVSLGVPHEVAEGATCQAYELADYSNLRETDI

[4] = biological target: human α2B adrenergic receptor (Homo sapiens, UniProt P18089); test: Cross-reactivity binding, cloned human α2b receptor
[5] = biological target: 5HT1D2 (Homo sapiens, UniProt P28222); test: Cross-reactivity binding, human 5HT1D2 receptor; details: for Receptor (pKi) 5HT1D2: cloned human receptor
Chain of 5HT1D2 (P28222 whole entry): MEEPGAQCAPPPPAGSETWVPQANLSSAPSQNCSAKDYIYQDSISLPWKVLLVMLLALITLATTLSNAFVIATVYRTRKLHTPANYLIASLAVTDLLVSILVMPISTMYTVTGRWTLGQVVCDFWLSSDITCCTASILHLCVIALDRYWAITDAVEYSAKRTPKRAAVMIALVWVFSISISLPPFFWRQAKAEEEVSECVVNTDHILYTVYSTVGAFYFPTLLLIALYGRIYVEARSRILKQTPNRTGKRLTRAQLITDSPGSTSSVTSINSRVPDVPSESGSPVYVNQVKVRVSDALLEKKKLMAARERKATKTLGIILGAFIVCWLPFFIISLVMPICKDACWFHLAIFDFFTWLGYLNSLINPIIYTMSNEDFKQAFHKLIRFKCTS

[6] = biological target: human α2A adrenergic receptor (Homo sapiens, UniProt P08913); test: Cross-reactivity binding, cloned human α2a receptor
[7] = biological target: human Y1 receptor (Homo sapiens, UniProt P25929); test: ^125I-PYY binding of compounds to human Y1 receptor, stably transfected cells
Chain of human Y1 receptor (P25929 whole entry): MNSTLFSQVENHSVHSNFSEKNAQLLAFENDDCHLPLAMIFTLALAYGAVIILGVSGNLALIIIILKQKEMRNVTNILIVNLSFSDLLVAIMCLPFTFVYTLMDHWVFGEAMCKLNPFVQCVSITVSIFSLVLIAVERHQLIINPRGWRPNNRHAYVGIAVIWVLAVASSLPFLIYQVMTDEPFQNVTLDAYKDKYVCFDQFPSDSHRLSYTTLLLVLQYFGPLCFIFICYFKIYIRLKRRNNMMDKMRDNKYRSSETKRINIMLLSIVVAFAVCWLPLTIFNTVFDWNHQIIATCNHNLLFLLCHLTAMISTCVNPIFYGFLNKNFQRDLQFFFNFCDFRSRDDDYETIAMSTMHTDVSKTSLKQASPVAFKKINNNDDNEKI
Description: (§1) To prepare membranes from baculovirus infected cells, 2×10^7 Sf21 cells were grown in 150 mm tissue culture dishes and infected with a high-titer stock of hY5BB3.

[8] = biological target: human 5HT1Dα receptor (Homo sapiens, UniProt P28221); test: Cross-reactivity binding, human 5HT1Dα receptor; details: for Receptor (pKi) 5HT1Dα: cloned human receptor
Chain of human 5HT1Dα receptor (P28221 whole entry): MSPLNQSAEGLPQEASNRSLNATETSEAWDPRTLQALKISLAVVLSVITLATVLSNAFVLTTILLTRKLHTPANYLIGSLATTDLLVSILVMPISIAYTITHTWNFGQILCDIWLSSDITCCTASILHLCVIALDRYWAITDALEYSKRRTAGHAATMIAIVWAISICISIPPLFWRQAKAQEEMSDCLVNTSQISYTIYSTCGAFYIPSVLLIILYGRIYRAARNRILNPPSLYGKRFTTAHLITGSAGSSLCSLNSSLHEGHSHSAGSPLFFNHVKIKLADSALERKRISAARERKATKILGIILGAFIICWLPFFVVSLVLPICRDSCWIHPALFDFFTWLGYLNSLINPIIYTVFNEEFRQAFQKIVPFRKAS

[9] = biological target: T1, human 5HT1F receptor (Homo sapiens, UniProt P30939); test: Cross-reactivity binding, human 5HT1F receptor; details: for Receptor (pKi) 5HT1F: cloned human receptor
T1 sequence (P30939 1-366): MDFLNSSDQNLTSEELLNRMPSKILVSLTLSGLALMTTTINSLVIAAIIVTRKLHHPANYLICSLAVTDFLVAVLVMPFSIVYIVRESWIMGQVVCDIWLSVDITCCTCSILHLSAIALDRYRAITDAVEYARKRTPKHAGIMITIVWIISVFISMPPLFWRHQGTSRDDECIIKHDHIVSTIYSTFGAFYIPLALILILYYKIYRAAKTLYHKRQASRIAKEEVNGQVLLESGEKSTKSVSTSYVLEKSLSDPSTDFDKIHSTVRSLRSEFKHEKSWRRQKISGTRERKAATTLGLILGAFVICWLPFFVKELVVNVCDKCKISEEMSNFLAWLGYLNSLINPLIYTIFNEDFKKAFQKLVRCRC

[10] = biological target: human α1b adrenergic receptor (Homo sapiens, UniProt P35368); test: Cross-reactivity binding, cloned human α1b receptor
[11] = biological target: human 5HT1E receptor (Homo sapiens, UniProt P28566); test: Cross-reactivity binding, human 5HT1E receptor; details: for Receptor (pKi) 5HT1E: cloned human receptor
Chain of human 5HT1E receptor (P28566 whole entry): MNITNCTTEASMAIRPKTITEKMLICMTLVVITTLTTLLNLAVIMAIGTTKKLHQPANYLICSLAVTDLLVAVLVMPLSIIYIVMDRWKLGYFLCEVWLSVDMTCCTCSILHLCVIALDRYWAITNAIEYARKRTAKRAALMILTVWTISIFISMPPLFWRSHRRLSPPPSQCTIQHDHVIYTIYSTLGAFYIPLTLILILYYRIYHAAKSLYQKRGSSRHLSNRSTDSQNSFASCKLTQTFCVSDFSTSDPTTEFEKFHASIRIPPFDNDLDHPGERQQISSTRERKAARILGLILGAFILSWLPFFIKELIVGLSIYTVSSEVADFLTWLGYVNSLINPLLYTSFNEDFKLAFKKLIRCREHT

[12] = biological target: T2, human Y4 receptor (Homo sapiens, UniProt P50391); test: ^125I-PYY binding of compounds to human Y4 receptor, stably transfected cells
T2 sequence (P50391 whole entry): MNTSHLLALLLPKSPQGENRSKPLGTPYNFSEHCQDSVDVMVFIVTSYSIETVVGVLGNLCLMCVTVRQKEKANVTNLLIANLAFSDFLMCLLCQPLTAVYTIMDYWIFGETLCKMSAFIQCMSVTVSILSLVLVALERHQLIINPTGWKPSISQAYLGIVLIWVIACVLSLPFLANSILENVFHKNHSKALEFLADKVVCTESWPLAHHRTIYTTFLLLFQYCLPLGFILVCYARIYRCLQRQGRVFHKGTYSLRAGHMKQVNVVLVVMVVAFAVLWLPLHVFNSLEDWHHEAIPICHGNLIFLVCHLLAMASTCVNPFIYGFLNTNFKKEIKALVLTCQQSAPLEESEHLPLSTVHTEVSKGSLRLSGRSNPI
Description: as §1

[13] = biological target: T3, human Y2 receptor (Homo sapiens, UniProt P49146); test: ^125I-PYY binding of compounds to human Y2 receptor, stably transfected cells
T3 sequence (P49146 1-381): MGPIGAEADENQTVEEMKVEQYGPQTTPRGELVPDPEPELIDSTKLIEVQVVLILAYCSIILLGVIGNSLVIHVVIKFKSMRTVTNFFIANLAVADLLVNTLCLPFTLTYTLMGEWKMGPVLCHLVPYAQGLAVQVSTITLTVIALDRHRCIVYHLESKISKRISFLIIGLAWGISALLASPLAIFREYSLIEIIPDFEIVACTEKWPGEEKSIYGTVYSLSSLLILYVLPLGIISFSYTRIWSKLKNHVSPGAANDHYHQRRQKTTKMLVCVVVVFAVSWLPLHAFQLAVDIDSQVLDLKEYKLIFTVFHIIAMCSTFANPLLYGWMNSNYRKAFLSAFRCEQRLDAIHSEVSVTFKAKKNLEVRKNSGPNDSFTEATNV
Description: as §1

[14] = biological target: human α2C adrenergic receptor (Homo sapiens, UniProt P18825); test: Cross-reactivity binding, cloned human α2c receptor
Chain of human α2C adrenergic receptor (P18825 whole entry): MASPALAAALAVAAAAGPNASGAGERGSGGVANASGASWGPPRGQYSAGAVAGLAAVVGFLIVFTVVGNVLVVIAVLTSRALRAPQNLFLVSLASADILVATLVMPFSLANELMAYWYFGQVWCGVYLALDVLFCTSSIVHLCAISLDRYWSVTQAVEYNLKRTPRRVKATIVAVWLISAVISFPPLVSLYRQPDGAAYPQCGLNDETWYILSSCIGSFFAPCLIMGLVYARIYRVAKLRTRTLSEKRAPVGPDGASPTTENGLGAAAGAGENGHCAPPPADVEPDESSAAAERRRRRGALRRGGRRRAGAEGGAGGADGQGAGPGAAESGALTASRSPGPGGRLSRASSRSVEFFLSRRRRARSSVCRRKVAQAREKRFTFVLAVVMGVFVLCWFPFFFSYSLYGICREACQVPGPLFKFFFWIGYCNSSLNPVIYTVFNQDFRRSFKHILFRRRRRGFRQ

[15] = biological target: 5HT1a (Homo sapiens, UniProt P08908); test: Cross-reactivity binding, human 5HT1a receptor
Chain of 5HT1a (P08908 whole entry): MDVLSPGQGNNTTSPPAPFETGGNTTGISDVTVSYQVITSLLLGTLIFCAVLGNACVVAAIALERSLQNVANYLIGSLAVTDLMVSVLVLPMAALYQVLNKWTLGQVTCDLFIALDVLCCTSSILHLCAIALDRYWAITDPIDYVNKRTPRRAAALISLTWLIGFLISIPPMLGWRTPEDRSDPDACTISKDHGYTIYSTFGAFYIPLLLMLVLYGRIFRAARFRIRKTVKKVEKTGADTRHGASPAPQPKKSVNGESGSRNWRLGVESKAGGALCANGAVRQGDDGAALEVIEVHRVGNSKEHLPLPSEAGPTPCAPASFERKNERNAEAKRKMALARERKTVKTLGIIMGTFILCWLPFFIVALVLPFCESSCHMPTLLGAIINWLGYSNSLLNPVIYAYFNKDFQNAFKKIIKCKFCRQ

[16] = biological target: human 5HT2 receptor (Homo sapiens, UniProt P28223); test: Cross-reactivity binding, human 5HT2 receptor
Chain of human 5HT2 receptor (P28223 whole entry): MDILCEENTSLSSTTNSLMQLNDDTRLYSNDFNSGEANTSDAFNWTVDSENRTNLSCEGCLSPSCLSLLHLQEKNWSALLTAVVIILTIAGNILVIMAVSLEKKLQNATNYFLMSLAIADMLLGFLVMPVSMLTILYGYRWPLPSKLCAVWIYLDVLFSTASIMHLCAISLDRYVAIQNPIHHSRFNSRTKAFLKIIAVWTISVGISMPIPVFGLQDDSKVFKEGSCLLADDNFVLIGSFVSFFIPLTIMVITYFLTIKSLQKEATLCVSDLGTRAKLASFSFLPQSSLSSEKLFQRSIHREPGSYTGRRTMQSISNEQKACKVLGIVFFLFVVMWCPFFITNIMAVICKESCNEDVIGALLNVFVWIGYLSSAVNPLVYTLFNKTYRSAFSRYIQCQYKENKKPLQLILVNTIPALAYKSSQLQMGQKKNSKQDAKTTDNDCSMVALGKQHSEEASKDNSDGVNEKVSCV

[17] = biological target: human dopamine D3 receptor (Homo sapiens, UniProt P35462); test: Cross-reactivity binding, human dopamine D3 receptor
Chain of human dopamine D3 receptor (P35462 whole entry): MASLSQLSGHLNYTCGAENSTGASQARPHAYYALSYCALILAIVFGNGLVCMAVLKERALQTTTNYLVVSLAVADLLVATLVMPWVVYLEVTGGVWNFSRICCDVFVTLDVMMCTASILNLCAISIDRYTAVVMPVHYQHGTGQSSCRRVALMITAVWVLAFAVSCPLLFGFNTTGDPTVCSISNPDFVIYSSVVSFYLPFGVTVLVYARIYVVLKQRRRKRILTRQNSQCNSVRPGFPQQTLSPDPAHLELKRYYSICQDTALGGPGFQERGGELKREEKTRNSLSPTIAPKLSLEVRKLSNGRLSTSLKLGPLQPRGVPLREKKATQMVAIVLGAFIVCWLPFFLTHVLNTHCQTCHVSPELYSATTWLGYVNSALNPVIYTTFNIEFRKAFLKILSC

[18] = biological target: T3, human Y2 receptor; test: ^125I-PYY binding to cloned human Y2 receptor (COS-7 membranes); details: cloned human Y-type receptors; expression system not given
[19] = biological target: T2, human Y4 receptor; test: ^125I-PYY binding to cloned human Y4 receptor (COS-7 membranes); details: cloned human Y-type receptors; expression system not given
[20] = biological target: T4, rat Y2 receptor (Rattus norvegicus, UniProt Q9ERC0); test: Antagonism of NPY- or PP-induced activation of rat Y2 receptors; format: cell-based; parameters: expressed in transfected cells; details: rat Y2, concentrations up to 1 μM
T4 sequence (Q9ERC0 1-381): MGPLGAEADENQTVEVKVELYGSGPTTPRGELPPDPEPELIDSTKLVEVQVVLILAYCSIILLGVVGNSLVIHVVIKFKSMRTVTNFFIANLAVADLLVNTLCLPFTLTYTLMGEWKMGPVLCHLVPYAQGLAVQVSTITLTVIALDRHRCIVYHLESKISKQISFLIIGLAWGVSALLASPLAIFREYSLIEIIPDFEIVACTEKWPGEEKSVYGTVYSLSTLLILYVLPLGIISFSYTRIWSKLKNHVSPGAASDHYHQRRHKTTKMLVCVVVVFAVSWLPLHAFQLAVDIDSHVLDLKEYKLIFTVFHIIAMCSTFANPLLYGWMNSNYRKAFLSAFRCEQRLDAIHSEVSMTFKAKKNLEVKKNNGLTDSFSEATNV

[21] = biological target: T4, rat Y2 receptor; test: ^125I-PYY binding to cloned rat Y2 receptor (COS-7 membranes); details: cloned rat Y-type receptors; expression system not given
[22] = biological target: rat Y4 receptor (Rattus norvegicus, UniProt Q63447); test: ^125I-PYY binding to cloned rat Y4 receptor (COS-7 membranes); details: cloned rat Y-type receptors; expression system not given
[23] = biological target: canine Y5 receptor; test: Porcine ^125I-PYY binding to canine Y5 receptor (COS-7 membranes); details: COS-7 transient, Table 20 prints no unit, nM
[24] = system: satiated rats; test: NPY-induced food intake in satiated rats; format: in vivo, rat; details: 300 pmole i.c.v., p<0.05 Student-Newman-Keuls
Description: For these determinations food intake may be measured in normal satiated rats after intracerebroventricular application (i.c.v.) of NPY in the presence or absence of the test compound. Male Sprague Dawley rats (Ciba-Geigy AG, Sisseln, Switzerland) weighing between 180 g and 220 g are used for all experiments. The rats are individually housed in stainless steel cages and maintained on an 11:13 h light-dark cycle (lights off at 18:00 h) at a controlled temperature of 21-23° C. at all times. Water and food (NAFAG lab chow pellets NAFAG, Gossau, Switzerland) are available ad libidum.
Rats under pentobarbital anesthesia are stereotaxically implanted with a stainless steel guide cannula targeted at the right lateral ventricle. Stereotaxic coordinates, with the incisor bar set −2.0 mm below interaural line, are: −0.8 mm anterior and +1.3 mm lateral to bregma. The guide cannula is placed on the dura. […]
Food intake may be measured by placing preweighed pellets into the cages at the time of NPY injection. […] The food intake of animals treated with test compound may be calculated as a percentage of the food intake of control animals i.e., animals treated with vehicle. Alternatively, food intake for each group of animals subjected to a particular experimental condition may be expressed as the mean±S.E.M. Statistical analysis is performed by analysis of variance using the Student-Newman-Keuls test.

CC(=O)O[C@H]1CC[C@H](Nc2nc(Nc3ccccc3)c3ccccc3n2)CC1 [Compound 7, trans-2-(4-Acetoxy-cyclohexylamino)-4-phenylamino-quinazoline Hydrochloride]
Ki [1]: 229 nM
Ki [2]: 871 nM
Ki [3]: 347 nM
Ki [4]: 813 nM
Ki [5]: 5010 nM
Ki [6]: 69.2 nM
Ki [7]: 2170 nM
Ki [8]: 1410 nM
Ki [9]: 5010 nM
Ki [10]: 832 nM
Ki [11]: 5010 nM
Ki [12]: 7050 nM
Ki [13]: 2870 nM
Ki [14]: 141 nM

Cl.Nc1nc(NC[C@H]2CC[C@H](CNS(=O)(=O)c3cccc4ccccc34)CC2)nc2ccccc12 [Compound 5, trans-Naphthalene-1-sulfonic Acid {4-[(4-amino-quinazolin-2-ylamino)-methyl]-cyclohexylmethyl}-amide Hydrochloride]
Receptor (pKi) 5HT1F [9]: 5.30
Ki ([15]; cloned human receptor, read-out: Receptor (pKi) 5HT1a (converted)): 468 nM
Ki ([16]; cloned human receptor, read-out: Receptor (pKi) 5HT2 (converted)): 389 nM
Ki ([17]; cloned human receptor, read-out: Receptor (pKi) D3 (converted)): 57.5 nM
Receptor (pKi) 5HT1E [11]: 5.30

NC(N)=NCCC[C@@H](NC(=O)C(c1ccccc1)c1ccccc1)C(=O)NCc1ccc(O)cc1 [BIBP 3226]
Ki [18]: 6900 nM
Ki [19]: 8000 nM
antagonism of NPY- or PP-induced activation [20]: no evidence for antagonism
Ki [21]: 66000 nM
Ki [22]: 420 nM
Ki [23]: 17000 nM

Cl.c1ccc(Nc2nc(Nc3ccccc3)c3ccccc3n2)cc1 [Compound 1, 2,4-Diphenylamino-quinazoline Hydrochloride]
Receptor (pKi) 5HT1D2 [5]: 5.30
Receptor (pKi) 5HT1F [9]: 5.30
Ki [15]: 30900 nM
Ki [16]: 457 nM
Ki [17]: 2040 nM
Receptor (pKi) 5HT1E [11]: 5.30

Cl.O=[N+]([O-])c1ccccc1S(=O)(=O)NC[C@H]1CC[C@H](CNCC2CCc3ccccc3C2)CC1 (some centres unmarked) [Compound 20]
Receptor (pKi) 5HT1F [9]: 5.30
Receptor (pKi) 5HT1E [11]: 5.30

Cl.Cl.c1ccc(Nc2nc(Nc3ccc(N4CCCCC4)cc3)nc3ccccc23)cc1 [Compound 6, 2-[4-(Piperidin-1-yl)-phenylamino]-4-phenylamino-quinazoline Dihydrochloride]
Receptor (pKi) 5HT1D2 [5]: 5.30
Receptor (pKi) 5HT1Dα [8]: 5.30
Receptor (pKi) 5HT1F [9]: 5.30
Receptor (pKi) 5HT1E [11]: 5.30
Ki [14]: 437 nM

O=S(=O)(NC[C@H]1CC[C@H](CNC(CO)Cc2ccc(Cl)cc2)CC1)c1cccc2ccccc12 (stereo partly drawn) [Compound 25, Naphthalene-1-sulfonic Acid trans-(4-{[2-(4-Chlorophenyl)-1-hydroxymethyl-ethylamino]-methyl}cyclohexylmethyl)-amide]
Ki [9]: 5010 nM
Ki [11]: 5010 nM

COc1ccc(Nc2nc(Nc3ccccc3)c3cccc(OC)c3n2)cc1.Cl [Compound 9, 8-Methoxy-2-(4-methoxy-phenylamino)-4-phenylamino-quinazoline Hydrochloride]
Receptor (pKi) 5HT1D2 [5]: 5.30
Receptor (pKi) 5HT1Dα [8]: 5.30
Receptor (pKi) 5HT1F [9]: 5.30
Receptor (pKi) 5HT1E [11]: 5.30
Ki [13]: > 100000 nM

NPY: neuropeptide Y; porcine NPY, 300 pmole i.c.v., in the feeding studies
effect on food intake vs vehicles [24]: significantly induce food intake

CNS(=O)(=O)Cc1ccc(Nc2nc(Nc3ccccc3)c3cc(OC)ccc3n2)cc1.Cl [Compound 10, N-Methyl-[4-(6-methoxy-4-phenylamino-quinazolin-2-ylamino)-phenyl]-methanesulfonamide Hydrochloride]
Receptor (pKi) 5HT1D2 [5]: 5.30
Receptor (pKi) 5HT1Dα [8]: 5.30
Receptor (pKi) 5HT1F [9]: 5.30
Receptor (pKi) 5HT1E [11]: 5.30
Ki [13]: > 100000 nM

CNS(=O)(=O)Cc1ccc(Nc2nc(Nc3ccccc3)c3ccccc3n2)cc1.Cl [Compound 11, N-Methyl-[4-(4-phenylamino-quinazolin-2-ylamino)-phenyl]-methanesulfonamide Hydrochloride]
Receptor (pKi) 5HT1D2 [5]: 5.30
Receptor (pKi) 5HT1Dα [8]: 5.30
Receptor (pKi) 5HT1F [9]: 5.30
Receptor (pKi) 5HT1E [11]: 5.30
Ki [13]: > 100000 nM

Cl.O=S(=O)(NC[C@H]1CC[C@H](CNCC2CCc3ccccc3C2)CC1)c1cccc2ccccc12 (some centres unmarked) [Compound 19]
Receptor (pKi) 5HT1D2 [5]: 5.30
Receptor (pKi) 5HT1F [9]: 5.30
Receptor (pKi) 5HT1E [11]: 5.30

2-(Naphthalen-1-yl)-3-phenylpropane-1,2-diamine [Compound 28]
Ki ([7]; read-out: Binding Affinity (Ki (nM) vs. ^125I-PYY) Human Receptor Y1, stably transfected 293 or LM(tk-) cells, compound 1 also COS-7 data): > 100000 nM
Ki ([12]; read-out: Binding Affinity (Ki (nM) vs. ^125I-PYY) Human Receptor Y4, stably transfected cells): > 100000 nM
Ki ([13]; read-out: Binding Affinity (Ki (nM) vs. ^125I-PYY) Human Receptor Y2, stably transfected 293 or LM(tk-) cells, compound 1 also COS-7 data): > 75000 nM

From patent publication US6645774B1 (Synaptic Pharmaceutical Corporation, priority 1994, dated 2003)
